{"source": "patent US6569805B1", "about": "“Herbicidal compositions” (Aventis CropScience GmbH, priority 1999, dated 2003)", "format_in_all_cases": "in vivo", "key": {"[1]": {"tested_on": "Cyperus esculentus", "test": "Greenhouse test under paddy rice conditions, visual scoring about 3 weeks after application (Example 4)", "details": "herbicide 0.004 kg/ha without vegetable oil", "procedure": "(§1) Rice, and Cyperus esculentus as typical harmful plant, were grown in a greenhouse under paddy rice conditions (flooding level of the water 2-3 cm) in sealed plastic pots and sprayed with an active substance preparation at an application rate of (converted) 600 l/ha. The test plants were then placed in the greenhouse under optimal growth conditions and kept like this over the entire test period. Approximately 3 weeks after the application, they were evaluated by means of visually scoring the damage to the plants in comparison with the untreated control, using the following scheme: 100%=total destruction, 0%=no action. The test results are shown in the table hereinbelow, the action of the herbicide/safener combination and of the vegetable oil when used separately being stated in brackets: […]"}, "[2]": {"tested_on": "Rice", "test": "Greenhouse test under paddy rice conditions, visual scoring about 3 weeks after application (Example 4)", "details": "crop plant, herbicide 0.004 kg/ha without vegetable oil", "procedure": "as §1"}, "[3]": {"tested_on": "Chenopodium album", "test": "Greenhouse pot test, post-emergence spray, damage evaluated visually 2-3 weeks after treatment (Example 3)", "details": "herbicide 0.015 kg/ha without vegetable oil", "procedure": "(§2) Seeds or rhizome pieces of monocotyledonous and dicotyledonous harmful plants and useful plants were placed in sandy loam in pots of diameter 9 to 13 cm and covered with soil. The pots were kept in a greenhouse under optimal conditions. In the two- to three-leaf stage, i.e. approximately three weeks after cultivation has begun, the test plants were treated with the herbicides and vegetable oil in the form of aqueous dispersions or suspensions or emulsions and the green parts of the plant were sprayed with various dosage rates at an application rate of (converted) 300 l of water/ha. To grow the plants further, the pots were kept in the greenhouse under optimal conditions. The damage to the useful plants and harmful plants was evaluated visually 2-3 weeks after the treatment using the following scheme: 100%=total destruction, 0%=no action. The test results are shown in the table hereinbelow, the action of the herbicide/safener combination and of the vegetable oil when used separately being stated in brackets: […]"}, "[4]": {"tested_on": "Echinochloa crus galli", "test": "Greenhouse pot test, post-emergence spray, damage evaluated visually 2-3 weeks after treatment (Example 3)", "details": "herbicide 0.015 kg/ha without vegetable oil", "procedure": "as §2"}, "[5]": {"tested_on": "Sorghum halepense", "test": "Greenhouse pot test, post-emergence spray, damage evaluated visually 2-3 weeks after treatment (Example 3)", "details": "herbicide 0.015 kg/ha without vegetable oil", "procedure": "as §2"}}, "note": "Values joined by “and” are separate entries in the source; they are usually repeats but may differ in a detail not shown here. Identical values can stand only once.", "data": [{"compound": "CCOc1ccccc1OS(=O)(=O)NC(=O)Nc1nc(OC)cc(OC)n1", "note": "[A13, 1-(4,6-dimethoxypyrimidin-2-yl)-3-(2-ethoxyphenoxysulfonyl)urea]", "values": [{"measurement": "CYPES Action (%), herbicide used separately (first value in brackets)", "setting": "[1]", "result": 35, "unit": "%"}, {"measurement": "Rice Action (%), herbicide used separately (first value in brackets)", "setting": "[2]", "result": "0 (0 + 0) %"}]}, {"compound": "COc1cc(OC)nc(NC(=O)NS(=O)(=O)c2ncccc2C(=O)N(C)C)n1", "note": "[V1, Nicosulfuron]", "values": [{"measurement": "CHEAL Action (%), herbicide used separately (first value in brackets)", "setting": "[3]", "result": "(0 + 0) %"}, {"measurement": "ECHCG Action (%), herbicide used separately (first value in brackets)", "setting": "[4]", "result": "0 (0 + 0) % and 0%"}, {"measurement": "SORHA Action (%), herbicide used separately (first value in brackets)", "setting": "[5]", "result": "(0 + 0) %"}]}]}
